Laboratory results from patent US20150335719A1, “Intravitreal Injection of a Chimeric Phage Endolysin Ply187; Protection from Staphylococcus aureus Endophthalmitis” (priority 2014, published 2015).

Assays:
S. aureus strain RN6390 = experiment: Resistance development assay by repeated exposure in an MIC assay; format: cell-based, Staphylococcus aureus; settings: RN6390, up to 10 rounds of exposure
Method: Error bars represent SEM for three independent experiments performed in triplicates. […] Cells surviving at half (½) of the MIC value were used as an inoculum for each subsequent round of exposure. The change in susceptibility is recorded and presented as fold change resistance from day 1 to 10 of exposure and also after 5 days of growth (without any selection pressure) following the 10th day (represented as 10+5). The data represent means±SEM of two independent experiments performed in triplicate.
To verify and quantify the lytic activity against live S. aureus, we have tested Ply187AN-KSH3b in the Turbidity Reduction Assay. The turbidity assay measures the drop in optical density (OD) resulting from lysis of the target bacteria with the phage endolysin-derived protein. Turbidity reduction assays by chimeric Ply187AN-KSH3b were performed in a 96 well plate as described previously by Becker et al. (2009a, 2009b, supra). Briefly, S. aureus strains/isolates RN6390, USA 300, and clinical isolates R2932, R2952 and R3000 were grown to logarithmic phase (OD600 0.4-0.6) at 37° C. in tryptic Soy broth (TSB). The culture was harvested by centrifugation and the pellet was resuspended in assay buffer (400 mM NaCl, 20 mM Tris HCl, 1% glycerol, pH 7.5). Bacterial cultures (100 μl/well) were mixed with 100 μl of (as per MIC) of chimeric Ply187AN-KSH3b protein diluted in the same assay buffer. The reduction in the turbidity was measured after every 5 min up to 1 h using a micro plate reader. EB diluted in the same assay buffer (without chimeric Ply187AN-KSH3b protein) was used as a control (EB C). Resistance development against chimeric Ply187AN-KSH3b was tested using repeated exposure in an MIC assay as described by Rodriguez-Rubio and co-workers (Rodriguez-Rubio et al., PLoS One 8:e64671.). In brief, bacterial cultures (10^5 CFU/well) were exposed overnight to a 2-fold serial dilution of chimeric Ply187AN-KSH3b, lysostaphin, and gentamicin, where the latter serve as controls. […]

[1] = tested on: S. aureus (strain RN6390, USA 300, R 2932, R 2952, R 3000) biofilms; experiment: Biofilm disruption (Live/Dead BacLight staining and CFU count); format: cell-based, Staphylococcus aureus; settings: 24 h biofilms treated for 30 min
Method: FIGS. 2A-2E depicts the biofilm disruption activity of chimeric Ply187AN-KSH3b. In FIG. 2A-2E, either chimeric Ply187AN-KSH3b or EB (EB C) or Gentamicin (for MDR/MRSA strains/isolates) was applied to cover slips containing S. aureus RN6390 (FIG. 2A), USA 300 (FIG. 2B), R 2932 (FIG. 2C), R 2952 (FIG. 2D) and R3000 (FIG. 2E) biofilms for 30 min. Bacterial killing was assessed via Live/Dead™ staining and subsequent fluorescence microscopy. FIG. 2F depicts the viability of biofilm associated bacteria enumerated by CFU count. Error bars represent the mean±SEM of two independent experiments performed in triplicate.
Biofilm disruption by the chimeric Ply187AN-KSH3b was observed using Live/Dead BacLight™ staining which takes advantage of SYTO™ 9, a green-fluorescent nucleic acid stain and propidium iodide that fluoresces red. SYTO™ 9 labels a bacterial population with an intact membrane and fluoresces green. In contrast, propidium iodide penetrates bacteria with damaged membranes and fluoresces red. Briefly, static biofilms of S. aureus (strain RN6390, USA 300, R 2932, R 2952, R 3000) were grown on glass cover slips in 6 well tissue culture plates in fresh TSB media seeded with S. aureus. After incubation at 37° C. for 24 h, the biofilms were treated for an additional 30 min with chimeric Ply187AN-KSH3b (as per MIC) diluted in EB or with EB/gentamicin alone. The biofilms were then stained with the Live/Dead BacLight™ bacterial viability kit (Invitrogen, Carlsbad, Calif.), per manufacturer's instruction. The cover slips were washed three times with PBS to remove excess stain and cell debris, mounted with mounting oil on a glass slide, and examined with an Eclipse 90i fluorescence microscope (Nikon, Melville, N.Y.).

| Substance | fold change in resistance (S. aureus strain RN6390) [fold] | biofilm disruption by Live/Dead staining [1] |
| --- | --- | --- |
| lysostaphin | 128 |  |
| gentamicin [reference compound] | 16 | green fluorescence |
